Test results reported in patent publication US20210340177A1, “BIOACTIVE PEPTIDES HAVING HIGH BINDING AFFINITY TO HUMAN MUSCULAR NICOTINIC ACETYLCHOLINE RECEPTOR” (priority 2020, published 2021).

Tests used:
[1] = target: human muscular nicotinic acetylcholine receptor (HmnAChR) (Homo sapiens, UniProt P02708+Q04844); experiment: Binding energy of peptides in the HmnAChR binding site over runs of genetic algorithm; settings: Table 3, difference of binding energies (no unit printed in Table 3)
muscle cells = format: cell-based; settings: for Contraction of muscle cells after the washing step (reversibility): incubation for 24 hours followed by a washing step
Procedure: The efficacy of peptides V0083091A (KKYK; SEQ ID NO: 1) and V0083092A (KWKK; […]. Muscle cells were incubated or treated without (control) or with compounds, for example, peptides V0083091A and V0083092A, and contraction of the muscle cells was evaluated after incubation for 5 hours, after incubation for 24 hours, or after incubation for 24 hours followed by a washing step.

[2] = target: human muscular nicotinic acetylcholine receptor (HmnAChR) (human)
Sequence of human muscular nicotinic acetylcholine receptor (HmnAChR) (human) (P02708 21-457, chain 1 of 4): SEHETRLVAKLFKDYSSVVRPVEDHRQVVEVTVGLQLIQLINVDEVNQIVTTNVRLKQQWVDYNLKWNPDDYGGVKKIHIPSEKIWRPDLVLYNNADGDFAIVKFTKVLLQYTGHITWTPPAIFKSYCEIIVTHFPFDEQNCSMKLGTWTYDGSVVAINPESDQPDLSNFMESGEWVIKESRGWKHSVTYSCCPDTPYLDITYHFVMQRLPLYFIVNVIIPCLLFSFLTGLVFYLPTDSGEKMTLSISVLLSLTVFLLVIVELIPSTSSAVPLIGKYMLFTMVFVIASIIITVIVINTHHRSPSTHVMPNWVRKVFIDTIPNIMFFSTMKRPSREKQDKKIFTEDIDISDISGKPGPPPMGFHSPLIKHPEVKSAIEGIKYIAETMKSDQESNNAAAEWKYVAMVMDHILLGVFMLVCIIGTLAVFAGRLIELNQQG
Sequence of human muscular nicotinic acetylcholine receptor (HmnAChR) (human) (P11230 24-501, chain 2 of 4, further chain): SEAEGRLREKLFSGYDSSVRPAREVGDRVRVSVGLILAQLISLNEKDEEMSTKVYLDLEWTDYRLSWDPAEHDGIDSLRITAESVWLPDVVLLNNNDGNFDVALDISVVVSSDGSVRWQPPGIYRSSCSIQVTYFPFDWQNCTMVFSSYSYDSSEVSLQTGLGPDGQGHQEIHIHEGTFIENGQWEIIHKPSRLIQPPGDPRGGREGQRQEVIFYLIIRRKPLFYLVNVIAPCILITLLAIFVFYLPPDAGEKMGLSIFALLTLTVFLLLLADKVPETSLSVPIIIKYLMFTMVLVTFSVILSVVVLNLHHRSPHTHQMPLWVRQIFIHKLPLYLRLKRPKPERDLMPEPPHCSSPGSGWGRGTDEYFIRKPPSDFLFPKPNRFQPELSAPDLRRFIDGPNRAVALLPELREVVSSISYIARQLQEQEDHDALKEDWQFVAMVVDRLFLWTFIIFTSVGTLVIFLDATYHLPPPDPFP
Sequence of human muscular nicotinic acetylcholine receptor (HmnAChR) (human) (Q07001 22-517, chain 3 of 4, further chain): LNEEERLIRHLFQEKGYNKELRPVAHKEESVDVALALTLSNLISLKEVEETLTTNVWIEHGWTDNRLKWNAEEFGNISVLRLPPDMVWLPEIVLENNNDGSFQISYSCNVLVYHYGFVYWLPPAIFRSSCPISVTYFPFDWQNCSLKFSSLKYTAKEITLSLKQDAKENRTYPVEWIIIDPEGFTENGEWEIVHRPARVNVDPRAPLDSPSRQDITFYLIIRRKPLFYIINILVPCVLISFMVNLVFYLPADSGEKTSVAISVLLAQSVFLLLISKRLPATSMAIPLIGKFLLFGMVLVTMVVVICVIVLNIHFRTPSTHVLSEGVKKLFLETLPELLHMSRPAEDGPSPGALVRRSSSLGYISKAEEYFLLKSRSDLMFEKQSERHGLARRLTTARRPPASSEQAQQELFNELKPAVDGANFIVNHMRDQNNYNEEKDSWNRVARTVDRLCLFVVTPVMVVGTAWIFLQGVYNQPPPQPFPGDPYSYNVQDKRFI
Sequence of human muscular nicotinic acetylcholine receptor (HmnAChR) (human) (Q04844 21-493, chain 4 of 4, further chain): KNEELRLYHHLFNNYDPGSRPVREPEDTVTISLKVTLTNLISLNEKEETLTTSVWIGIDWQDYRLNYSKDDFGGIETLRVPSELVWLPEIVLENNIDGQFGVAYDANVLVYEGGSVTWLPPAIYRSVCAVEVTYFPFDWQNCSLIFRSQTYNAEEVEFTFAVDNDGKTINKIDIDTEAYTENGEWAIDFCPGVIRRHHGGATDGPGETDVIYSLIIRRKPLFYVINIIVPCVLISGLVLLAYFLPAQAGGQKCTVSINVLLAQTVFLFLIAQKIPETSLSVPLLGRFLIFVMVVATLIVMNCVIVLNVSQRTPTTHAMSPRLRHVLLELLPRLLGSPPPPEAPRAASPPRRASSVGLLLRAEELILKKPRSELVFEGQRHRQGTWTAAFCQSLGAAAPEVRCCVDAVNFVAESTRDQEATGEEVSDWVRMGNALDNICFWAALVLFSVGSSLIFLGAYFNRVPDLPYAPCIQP

[3] = test system: Human epidermal keratinocytes (HEKs); experiment: MTT assay on human epidermal keratinocytes in in vitro cultures; settings: 24 hours after treatment

Sequence of human muscular nicotinic acetylcholine receptor (HmnAChR) (P02708 21-457): as the sequence (P02708 21-457, chain 1 of 4) above
Sequence of human muscular nicotinic acetylcholine receptor (HmnAChR) (Q04844 21-493): as the sequence (Q04844 21-493, chain 4 of 4, further chain) above
Sequence of human muscular nicotinic acetylcholine receptor (HmnAChR) (P11230 24-501 partner): as the sequence (P11230 24-501, chain 2 of 4, further chain) above
Sequence of human muscular nicotinic acetylcholine receptor (HmnAChR) (Q07001 22-517 partner): as the sequence (Q07001 22-517, chain 3 of 4, further chain) above

dipeptide diaminobutyroyl benzylamide diacetate [SYN ®-AKE]
(Best Result − Average) [1]: -3.01 kcal/mol

C/C=C/C=C\CC/C=C/C(=O)NCC(C)C [spilanthol]
Inhibition of contraction of muscle cells, effect size (muscle cells; 1 μM or 10 μM, 5 or 24 hours after incubation, p value<5%): 1.5-2
Contraction of muscle cells after the washing step (reversibility) (muscle cells): inhibitory effect was lost

peptide V0083091A (KKYK; SEQ ID NO: 1)
Binding Energy, All 100 Average [2]: -8.39 kcal/mol
Binding Energy, Best Result [2]: -11.4 kcal/mol
Binding Energy, Top 10 Average [2]: -10.2 kcal/mol

Lys-Lys-Tyr-Lys [Peptide V0083091A]
Inhibition effect on muscle cell contraction (muscle cells; 1 μM, observable after incubation for 24 hours): much less inhibition effect
Contraction of muscle cells after the washing step (reversibility) (muscle cells): no clear recovery of the contraction power
Proliferation of the HEKs [3]: induced proliferation
